Data from paper PMC10767194 (The Journal of Biological Chemistry, 2023).
Like-named read-outs stand apart in the source and are kept apart here.

Assays:
Cdk10/CycQ = target: T1, Cdk10/CycQ (Homo sapiens, UniProt Q15131); test: radioactive in vitro kinase assay, Cdk10/CycQ; type: biochemical; conditions: 0.2 mM ATP
T1 construct: Full-length, human, WT Cdk10 (residues 1–360, UniProt Q15131); made in house; host or cells: Sf9 insect cells
Procedure: (§1) Radioactive kinase activity assays were performed in a total volume of 15 μl per sample in kinase assay buffer (50 mM Hepes/pH 7.6, 34 mM KCl, 7 mM MgCl2, 5 mM β-glycerol phosphate, and 2.5 mM dithioerythritol). Preincubation of 0.2 μM or 0.02 μM recombinant protein kinase with indicated concentrations of respective inhibitor and 0.2 to 2 mM ATP containing 0.45 mCi [^32P]-γ-ATP/ml (PerkinElmer) was carried out for 5 min. Kinase reactions were started by addition of substrate protein (10 μM GST-Rb1 for Cdk4/CycD3, 10 μM GST-CTD[52] for Cdk7/CycH/MAT1, 50 μM His-c-Myc for all others) and incubated for 20 min at 30 °C in a shaking incubator at 300 rpm. For pS7-CTD[3] peptide, the substrate concentration was increased to 100 μM and assays were performed for 60 min. Reactions were terminated by the addition of EDTA to a final concentration of 50 mM. […] Radioactive counts were determined in a Beckman Liquid Scintillation Counter (Beckman Coulter) for 1 min. […] IC50 values were extracted from triplicate measurements by sigmoidal curve fitting using DataGraph (v. 5.0; https://www.visualdatatools.com/DataGraph/) or were determined by applying the Morrison quadratic equation for tight binding inhibitors using GraphPad Prism 10 (https://www.graphpad.com/) ([40]).

Cdk7/CycH = test system: T2, Cdk7/CycH; test: radioactive in vitro kinase assay, Cdk7/CycH; type: biochemical, human; conditions: 0, 0.1, 1, 10, 100 μM compound, 0.2 μM kinase, 0.2 mM ATP
T2 construct: Full-length, human, WT Cdk7 (residues 1–346, UniProt P50613); made in house; host or cells: Sf9 insect cells
Procedure: as §1

Cdk12/CycK [1] = target: T3, Cdk12/CycK (Homo sapiens, UniProt Q9NYV4); test: radioactive in vitro kinase assay, Cdk12/CycK; type: biochemical; conditions: 0, 0.1, 1, 10, 100 μM compound, 0.2 μM Cdk12, 0.2 mM ATP, His-c-Myc, 20 min
T3 construct: GST (TEV site) (N, cleaved yes); made in house; host or cells: Sf9 insect cells, co-expressed with S. cerevisiae CAK1
Procedure: (§2) To a concentration of 0.2 μM kinase and 0.2 mM ATP, a compound concentration ranging from 0.1 nM to 1 mM was applied. Kinase reactions were started by the addition of 100 μM CTD peptide containing three hepta-repeats continuously prephosphorylated at position S7 (pS7-CTD[3]) and terminated after 60 min incubation time. In vitro IC50-values were determined by applying a sigmoidal fit to dose-response measurements (Fig. 1A).
Cdk12 kinase (0.2 μM) in the presence of 0.2 mM ATP were supplemented with respective compounds at concentrations of 0, 0.1, 1, 10, and 100 μM for 5 min. Upon addition of 50 μM His-c-Myc substrate the kinase assay reaction was conducted for 20 min.
Radioactive kinase activity assays were performed in a total volume of 15 μl per sample in kinase assay buffer (50 mM Hepes/pH 7.6, 34 mM KCl, 7 mM MgCl2, 5 mM β-glycerol phosphate, and 2.5 mM dithioerythritol). Preincubation of 0.2 μM or 0.02 μM recombinant protein kinase with indicated concentrations of respective inhibitor and 0.2 to 2 mM ATP containing 0.45 mCi [^32P]-γ-ATP/ml (PerkinElmer) was carried out for 5 min. Kinase reactions were started by addition of substrate protein (10 μM GST-Rb1 for Cdk4/CycD3, 10 μM GST-CTD[52] for Cdk7/CycH/MAT1, 50 μM His-c-Myc for all others) and incubated for 20 min at 30 °C in a shaking incubator at 300 rpm. For pS7-CTD[3] peptide, the substrate concentration was increased to 100 μM and assays were performed for 60 min. Reactions were terminated by the addition of EDTA to a final concentration of 50 mM. Reaction samples were separately spotted onto Amersham Protran nitrocellulose membranes (GE HealthCare) and subsequently washed three times for 5 min in PBS. Samples were transferred to 4 ml liquid scintillation vials and 2 ml liquid scintillator (Ultima Gold) were added. Radioactive counts were determined in a Beckman Liquid Scintillation Counter (Beckman Coulter) for 1 min. […] For analysis of dose response measurements and IC50 value determination, data of inhibitor-supplemented samples were normalized to DMSO solvent controls and their activity plotted against the inhibitor concentration. IC50 values were extracted from triplicate measurements by sigmoidal curve fitting using DataGraph (v. 5.0; https://www.visualdatatools.com/DataGraph/) or were determined by applying the Morrison quadratic equation for tight binding inhibitors using GraphPad Prism 10 (https://www.graphpad.com/) ([40]).

DYRK1A = test system: T4, DYRK1A; test: radioactive in vitro kinase assay, DYRK1A; type: biochemical, human; conditions: 0, 0.1, 1, 10, 100 μM compound, 0.2 μM kinase, 0.2 mM ATP
T4 construct: The kinase domain of human DYRK1A (residues 126–485, UniProt Q13627); made in house; host or cells: E. coli BL21 pLysS
Procedure: as §1

HIPK1 = test system: T5, HIPK1; test: radioactive in vitro kinase assay, HIPK1; type: biochemical, human; conditions: 0, 0.1, 1, 10, 100 μM compound, 0.2 μM kinase, 0.2 mM ATP
T5 construct: human HIPK1 (residues 154–554, UniProt Q86Z02); made in house; host or cells: Sf9 insect cells
Procedure: as §1

Cdk8/CycC = test: radioactive in vitro kinase assay, Cdk8/CycC; type: biochemical, human; conditions: 0, 0.1, 1, 10, 100 μM compound, 0.2 μM kinase, 0.2 mM ATP
Procedure: as §1

Cdk12/CycK [2] = target: T3, Cdk12/CycK; test: nanoDSF thermal protein stability, Cdk12/CycK; type: binding; conditions: 5 μM protein
Procedure: (§3) At 10 μM concentration, the thermal shift observed was +4.7 °C, while at 100 μM the thermal stability was increased by +6.2 °C (Table S2) compared to a DMSO control. Together, the results obtained from both SPR and nanoDSF measurements align well with the IC50 values determined for Cdk12∗/CycK and Cdk13∗/CycK kinases.
(§4) For identification of thermal protein stability, nanoDSF experiments were conducted using a Prometheus NT.48 (NanoTemper) instrument. […] at the wavelengths λ = 330 and 350 nm were monitored at an excitation power of 25% in a temperature range from 20 to 90 °C with a slope of 1.5 °C/min. The measurement was conducted and evaluated with the PR.ThermControl software (https://nanotempertech.com/prometheus/nt48-software/). Experiments were conducted in duplicates.

Cdk13/CycK [3] = target: T6, Cdk13/CycK (Homo sapiens, UniProt Q14004); test: nanoDSF thermal protein stability, Cdk13/CycK; type: binding; conditions: 5 μM protein
T6 construct: The kinase domain of human Cdk13 (residues 694–1039, UniProt Q14004); made in house; host or cells: Sf9 insect cells, co-expressed with CAK1
Procedure: as §3, §4

Cdk13/CycK [4] = target: T6, Cdk13/CycK; test: radioactive in vitro kinase assay, Cdk13/CycK; type: biochemical
Procedure: as §2, with “1A). […] The Michaelis–Menten constants (KM) for ATP were determined as 17.5 μM for Cdk12/CycK and 12.6 μM for Cdk13/CycK, respectively. […] These values are in accordance with the values derived from sigmoidal curve fitting.” for “1A).”
Radioactive kinase activity assays were performed in a total volume of 15 μl per sample in kinase assay buffer (50 mM Hepes/pH 7.6, 34 mM KCl, 7 mM MgCl2, 5 mM β-glycerol phosphate, and 2.5 mM dithioerythritol). […] Radioactive counts were determined in a Beckman Liquid Scintillation Counter (Beckman Coulter) for 1 min. […] IC50 values were extracted from triplicate measurements by sigmoidal curve fitting using DataGraph (v. 5.0; https://www.visualdatatools.com/DataGraph/) or were determined by applying the Morrison quadratic equation for tight binding inhibitors using GraphPad Prism 10 (https://www.graphpad.com/) ([40]).

T6 sequence (Q14004 694-1039): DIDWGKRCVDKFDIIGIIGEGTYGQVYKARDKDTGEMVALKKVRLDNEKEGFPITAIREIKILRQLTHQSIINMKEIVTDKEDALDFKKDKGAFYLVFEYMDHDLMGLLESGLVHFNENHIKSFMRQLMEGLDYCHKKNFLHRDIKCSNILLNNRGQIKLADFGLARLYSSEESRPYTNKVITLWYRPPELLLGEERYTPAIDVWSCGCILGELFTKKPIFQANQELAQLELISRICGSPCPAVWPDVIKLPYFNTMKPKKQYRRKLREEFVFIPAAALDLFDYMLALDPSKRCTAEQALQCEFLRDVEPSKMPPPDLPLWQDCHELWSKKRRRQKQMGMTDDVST
T6 sequence (O75909 1-267 partner limits assumed): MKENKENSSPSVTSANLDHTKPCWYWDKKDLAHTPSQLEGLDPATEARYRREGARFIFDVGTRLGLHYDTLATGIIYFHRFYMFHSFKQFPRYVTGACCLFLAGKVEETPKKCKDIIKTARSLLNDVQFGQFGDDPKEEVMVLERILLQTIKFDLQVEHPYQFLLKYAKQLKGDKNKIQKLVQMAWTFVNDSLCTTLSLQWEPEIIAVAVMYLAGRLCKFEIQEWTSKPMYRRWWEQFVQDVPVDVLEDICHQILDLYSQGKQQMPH
T3 sequence (Q9NYV4 714-1063): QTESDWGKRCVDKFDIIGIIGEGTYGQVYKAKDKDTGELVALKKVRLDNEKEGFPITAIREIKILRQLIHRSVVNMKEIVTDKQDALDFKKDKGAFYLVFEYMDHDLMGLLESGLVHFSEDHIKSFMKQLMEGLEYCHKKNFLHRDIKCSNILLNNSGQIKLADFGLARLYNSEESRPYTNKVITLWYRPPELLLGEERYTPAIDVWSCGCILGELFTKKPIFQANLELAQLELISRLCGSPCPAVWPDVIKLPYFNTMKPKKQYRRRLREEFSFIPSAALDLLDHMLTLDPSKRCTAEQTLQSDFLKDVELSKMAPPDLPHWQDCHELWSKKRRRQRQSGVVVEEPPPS
T3 sequence (O75909 1-267 partner limits assumed): as the sequence (O75909 1-267 partner limits assumed) above
T1 sequence (Q15131 whole entry, the tested form may be a part): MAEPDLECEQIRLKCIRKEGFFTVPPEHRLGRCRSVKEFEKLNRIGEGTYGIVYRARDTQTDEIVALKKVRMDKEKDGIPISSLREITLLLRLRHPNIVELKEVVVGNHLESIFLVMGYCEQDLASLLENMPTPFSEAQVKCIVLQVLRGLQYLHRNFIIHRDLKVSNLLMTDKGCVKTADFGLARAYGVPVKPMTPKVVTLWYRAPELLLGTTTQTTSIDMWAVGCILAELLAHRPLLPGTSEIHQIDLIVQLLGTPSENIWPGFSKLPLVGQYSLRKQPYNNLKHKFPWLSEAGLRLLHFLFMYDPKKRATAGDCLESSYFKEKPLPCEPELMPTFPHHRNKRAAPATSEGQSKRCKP
T1 sequence (Q8N1B3 whole entry partner, the tested form may be a part): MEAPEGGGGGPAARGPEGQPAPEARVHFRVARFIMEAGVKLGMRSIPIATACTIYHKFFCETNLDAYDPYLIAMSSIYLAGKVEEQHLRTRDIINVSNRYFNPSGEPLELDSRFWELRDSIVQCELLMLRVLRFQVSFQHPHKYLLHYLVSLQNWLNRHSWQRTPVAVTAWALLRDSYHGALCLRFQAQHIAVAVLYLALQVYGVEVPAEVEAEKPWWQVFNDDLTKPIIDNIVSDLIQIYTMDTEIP

Cn1cc(-n2cnc3c(NCc4nc5cc(Cl)c(Cl)cc5[nH]4)nc(N4CCOCC4)nc32)cn1 [SR-4835]
inhibition of Cdk10/CycQ activity (Cdk10/CycQ; 0, 0.1, 1, 10, 100 μM compound, 0.2 μM kinase): moderate SR-4835 concentration dependent decrease | IC50 (Cdk10/CycQ; concentration range 1 nM to 1 mM, sigmoidal fit): 1070 nM | inhibition of Cdk7 activity (Cdk7/CycH): no inhibitory activity | inhibitory effect on Cdk12/CycK activity, in words (Cdk12/CycK [1]): modest effects | inhibition of DYRK1A activity (DYRK1A): not inhibited | inhibition of HIPK1 activity (HIPK1): not inhibited | inhibition of Cdk8 activity (Cdk8/CycC): no inhibitory activity | Tm, Cdk12/CycK (Cdk12/CycK [2]; 1 μM compound): 51.45 °C | ∆Tm to DMSO control, Cdk12/CycK (Cdk12/CycK [2]; 1 μM compound): +0.80 °C | Tm, Cdk12/CycK (Cdk12/CycK [2]; 10 μM compound): 58.70 °C | Tm, Cdk12/CycK (Cdk12/CycK [2]; 100 μM compound): 60.45 °C | Tm, Cdk13/CycK (Cdk13/CycK [3]; 1 μM compound): 54.40 °C | ∆Tm to DMSO control, Cdk13/CycK (Cdk13/CycK [3]; 1 μM compound): +0.25 °C | Tm, Cdk13/CycK (Cdk13/CycK [3]; 10 μM compound): 58.80 °C | Tm, Cdk13/CycK (Cdk13/CycK [3]; 100 μM compound): 60.30 °C | IC50 (Cdk13/CycK [4]; 0.2 μM and 0.02 μM kinase, c-Myc substrate, Morrison quadratic equation fit, read-out: IC50 Cdk13/CycK, Morrison quadratic equation): 366 to 400 nM | IC50 (Cdk13/CycK [4]; 0.2 μM kinase, 0.2 mM ATP, 100 μM pS7-CTD[3], 60 min, sigmoidal fit, read-out: IC50 Cdk13/CycK on pS7-CTD[3]): 366 nM
